Laboratory results taken from PubChem BioAssay AID248 (DTP/NCI, 2004).
Where “and” joins values, the source holds several entries; their conditions need not be identical. Identical values can stand only once. Inconclusive results and toxic doses are left out. No stated cut-off is given here; in the data, active means T/C of 150% or more; inactive means T/C below 125%.

Tested on: L1210 leukemia ip in BDF1 mice, survival T/C
Assay: NCI In Vivo Anticancer Drug Screen. Data for tumor model L1210 Leukemia (intraperitoneal) in B6D2F1 (BDF1) mice
Conditions: endpoint: mean survival time, higher = longer survival
Summary of the method: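 Antitumor effect is assessed in tumor-bearing animals. Survival in the compound arm is compared with a vehicle-dosed control arm and expressed as their quotient.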

[1] = dose: 100.0 mg/kg/injection, schedule: Q01DX001 (ip), vehicle: saline
[2] = dose: 200.0 mg/kg/injection, schedule: Q01DX001 (ip), vehicle: saline
[3] = dose: 400.0 mg/kg/injection, schedule: Q01DX001 (ip), vehicle: saline
[4] = dose: 100.0 mg/kg/injection, schedule: Q01DX009 (ip), vehicle: Klucel (hydroxypropylcellulose) (HPC)
[5] = dose: 100.0 mg/kg/injection, schedule: Q04DX003 (ip), vehicle: Klucel (hydroxypropylcellulose) (HPC)
[6] = dose: 200.0 mg/kg/injection, schedule: Q01DX009 (ip), vehicle: Klucel (hydroxypropylcellulose) (HPC)
[7] = dose: 200.0 mg/kg/injection, schedule: Q04DX003 (ip), vehicle: Klucel (hydroxypropylcellulose) (HPC)
[8] = dose: 400.0 mg/kg/injection, schedule: Q01DX009 (ip), vehicle: Klucel (hydroxypropylcellulose) (HPC)
[9] = dose: 400.0 mg/kg/injection, schedule: Q04DX003 (ip), vehicle: Klucel (hydroxypropylcellulose) (HPC)
[10] = dose: 100.0 mg/kg/injection, schedule: Q01DX001 (ip), vehicle: other
[11] = dose: 200.0 mg/kg/injection, schedule: Q01DX001 (ip), vehicle: other
[12] = dose: 100.0 mg/kg/injection, schedule: Q01DX001 (ip), vehicle: Klucel (hydroxypropylcellulose) (HPC)
[13] = dose: 200.0 mg/kg/injection, schedule: Q01DX001 (ip), vehicle: Klucel (hydroxypropylcellulose) (HPC)
[14] = dose: 400.0 mg/kg/injection, schedule: Q01DX001 (ip), vehicle: Klucel (hydroxypropylcellulose) (HPC)
[15] = dose: 100.0 mg/kg/injection, schedule: Q01DX009 (ip), vehicle: saline
[16] = dose: 100.0 mg/kg/injection, schedule: Q04DX003 (ip), vehicle: saline
[17] = dose: 200.0 mg/kg/injection, schedule: Q01DX009 (ip), vehicle: saline
[18] = dose: 200.0 mg/kg/injection, schedule: Q04DX003 (ip), vehicle: saline
[19] = dose: 400.0 mg/kg/injection, schedule: Q04DX003 (ip), vehicle: saline

Measured: T/C

CC1(NCc2ccc(Cl)cc2)COP(=O)(NCc2ccccc2)OC1 (centres undefined)
inactive: dose: 50.0 mg/kg/injection, schedule: Q01DX001 (ip), vehicle: saline 101 % of control | [1] 106 % of control | [2] 95 % of control | [3] 98 % of control

CC1(C)COC(c2ccccc2Br)=N1
inactive: [4] 107 % of control | [5] 104 % of control and 105 % of control | [6] 104 % of control | [7] 97 % of control and 105 % of control | [8] 93 % of control | [9] 93 % of control and 100 % of control

CCCCCCCCCCCCSC(=O)Nc1cc([N+](=O)[O-])ccc1C
inactive: [5] 92 % of control | [7] 88 % of control | [9] 88 % of control

Oc1nc(/N=C2/N=c3ccc(Cl)cc3=N2)[nH]c1O
inactive: [5] 98 % of control | [7] 106 % of control | [9] 98 % of control

CSc1ccccc1NC(=O)c1cccs1
inactive: dose: 100.0 mg/kg/injection, schedule: Q04DX002 (ip), vehicle: Klucel (hydroxypropylcellulose) (HPC) 89 % of control | dose: 200.0 mg/kg/injection, schedule: Q04DX002 (ip), vehicle: Klucel (hydroxypropylcellulose) (HPC) 96 % of control | dose: 400.0 mg/kg/injection, schedule: Q04DX002 (ip), vehicle: Klucel (hydroxypropylcellulose) (HPC) 93 % of control

CCC(CC)NNC(CC)CC
inactive: dose: 75.0 mg/kg/injection, schedule: Q01DX001 (ip), vehicle: other 105 % of control | dose: 75.0 mg/kg/injection, schedule: Q01DX001 (ip), vehicle: saline 98 % of control | dose: 150.0 mg/kg/injection, schedule: Q01DX001 (ip), vehicle: other 98 % of control | dose: 150.0 mg/kg/injection, schedule: Q01DX001 (ip), vehicle: saline 96 % of control | dose: 300.0 mg/kg/injection, schedule: Q01DX001 (ip), vehicle: other 118 % of control

O=S(=O)(c1ccccc1)N1CC1CBr (centres undefined)
inactive: [10] 105 % of control | [11] 100 % of control | dose: 400.0 mg/kg/injection, schedule: Q01DX001 (ip), vehicle: other 108 % of control

NC(=O)N/N=C1/CCCC(C(=O)O)C1 (centres undefined)
inactive: [12] 105 % of control | [5] 102 % of control | [13] 109 % of control | [7] 98 % of control | [14] 103 % of control | [9] 100 % of control

CCCCCCCCN(CCCCCCCC)CC(=O)c1ccc2cc(Br)c3ccccc3c2c1
inactive: dose: 100.0 mg/kg/injection, schedule: Q01DX001 (ip), vehicle: alcohol 101 % of control | dose: 200.0 mg/kg/injection, schedule: Q01DX001 (ip), vehicle: alcohol 100 % of control | dose: 400.0 mg/kg/injection, schedule: Q01DX001 (ip), vehicle: alcohol 103 % of control

COc1cc(NC=O)c2ncccc2c1
inactive: dose: 50.0 mg/kg/injection, schedule: Q04DX003 (ip), vehicle: Klucel (hydroxypropylcellulose) (HPC) 97 % of control | [5] 100 % of control | [7] 88 % of control

Cc1[nH]c(=O)nc2c1CCO2
inactive: [1] 98 % of control | [2] 104 % of control | [3] 101 % of control

COc1c([N+](=O)[O-])cc2c(c1C)OCOC2
inactive: dose: 12.5 mg/kg/injection, schedule: Q01DX009 (ip), vehicle: Klucel (hydroxypropylcellulose) (HPC) 95 % of control | dose: 25.0 mg/kg/injection, schedule: Q01DX009 (ip), vehicle: Klucel (hydroxypropylcellulose) (HPC) 95 % of control | dose: 50.0 mg/kg/injection, schedule: Q01DX009 (ip), vehicle: Klucel (hydroxypropylcellulose) (HPC) 95 % of control | [12] 92 % of control | [13] 93 % of control | [14] 102 % of control

O=C1C(C(O)c2ccccc2)SC(c2ccccc2)N1c1ccccc1 (centres undefined)
inactive: [4] 97 % of control | [5] 90 % of control | [6] 101 % of control | [7] 94 % of control | [8] 95 % of control | [9] 93 % of control

Nc1nccc2n[nH]nc12
inactive: [12] 100 % of control | [5] 103 % of control | [13] 92 % of control | [7] 101 % of control | [14] 97 % of control | [9] 101 % of control

CN1C2CCCC1CC(O)(c1ccccc1)C2 (centres undefined)
inactive: dose: 12.5 mg/kg/injection, schedule: Q01DX001 (ip), vehicle: Klucel (hydroxypropylcellulose) (HPC) 96 % of control | dose: 25.0 mg/kg/injection, schedule: Q01DX001 (ip), vehicle: Klucel (hydroxypropylcellulose) (HPC) 99 % of control | dose: 50.0 mg/kg/injection, schedule: Q01DX001 (ip), vehicle: Klucel (hydroxypropylcellulose) (HPC) 102 % of control

O=C(O)C1CC=CCC1C(=O)O (centres undefined)
inactive: dose: 100.0 mg/kg/injection, schedule: Q01DX005 (ip), vehicle: saline 95 % of control | [15] 108 % of control | dose: 100.0 mg/kg/injection, schedule: Q04DX003 (ip), vehicle: saline with Tween-80 97 % of control | [16] 94 % of control | dose: 200.0 mg/kg/injection, schedule: Q01DX005 (ip), vehicle: saline 98 % of control | [17] 118 % of control | dose: 200.0 mg/kg/injection, schedule: Q04DX003 (ip), vehicle: saline with Tween-80 95 % of control | [18] 91 % of control | dose: 400.0 mg/kg/injection, schedule: Q01DX005 (ip), vehicle: saline 92 % of control | dose: 400.0 mg/kg/injection, schedule: Q04DX003 (ip), vehicle: saline with Tween-80 91 % of control | [19] 99 % of control

N#CCCN1CCCC1=O
inactive: [1] 103 % of control | [2] 100 % of control | [3] 106 % of control

COc1cc([N+](=O)[O-])ccc1NC(=O)NCCc1ccc(OC)c(OC)c1
inactive: [4] 93 % of control | [6] 96 % of control | [8] 100 % of control

COC(=O)C(C)=C1CCCCC1
inactive: [15] 106 % of control | [16] 93 % of control | [17] 96 % of control | [18] 98 % of control | dose: 400.0 mg/kg/injection, schedule: Q01DX009 (ip), vehicle: saline 96 % of control | [19] 95 % of control

CCNC(=O)SCCSC(=O)NCC
inactive: dose: 100.0 mg/kg/injection, schedule: Q01DX009 (ip), vehicle: other 92 % of control | dose: 200.0 mg/kg/injection, schedule: Q01DX009 (ip), vehicle: other 93 % of control | dose: 400.0 mg/kg/injection, schedule: Q01DX009 (ip), vehicle: other 92 % of control

Clc1ccccc1Nc1c2ccccc2nc2ccccc12
inactive: [16] 100 % of control | [18] 102 % of control | [19] 96 % of control

O=C1C(Cl)=C(c2ccccc2)C(=O)C(Cl)=C1c1ccccc1
inactive: [10] 93 % of control | [11] 88 % of control
